Source: DBAASP
Values after ≈ are worked out from the molar mass of the structure shown. Blank lines part the entries; values can stand above or below the molecule they belong to.

What was measured:
Assay in all cases: ≥ marks a high value that may be exact or a test limit, other limits are often not marked, values filed in µg/mL are converted to µM
[1] = tested on: Candida albicans ATCC 64550
[2] = tested on: Vibrio ichthyoenteri 1A00057
[3] = tested on: Vibrio vulnificus 1H00066
Vibrio litoralis H1 = tested on: Vibrio litoralis H1
[4] = tested on: Micrococcus luteus 1D00051
[5] = tested on: Staphylococcus aureus 1D00101
Vibrio scophthalmi ZS1 = tested on: Vibrio scophthalmi ZS1
[6] = tested on: Staphylococcus aureus ATCC 25923
Candida tropicalis = tested on: Candida tropicalis
Candida albicans = tested on: Candida albicans
Acinetobacter baumannii = tested on: Acinetobacter baumannii
Staphylococcus aureus = tested on: Staphylococcus aureus
Candida glabrata = tested on: Candida glabrata
[7] = tested on: Pseudomonas aeruginosa ATCC 10662
[8] = tested on: Enterococcus faecium ATCC 51559
[9] = tested on: Klebsiella pneumoniae ATCC 13883
[10] = tested on: Pseudomonas aeruginosa PAO1
[11] = tested on: Enterobacter cloacae B2366-12
[12] = tested on: Staphylococcus aureus USA 300
[13] = tested on: Acinetobacter baumannii B2367-12
Pseudomonas aeruginosa = tested on: Pseudomonas aeruginosa
Klebsiella pneumoniae = tested on: Klebsiella pneumoniae
[14] = tested on: Staphylococcus aureus ATCC 43300
[15] = tested on: Klebsiella pneumoniae ATCC 700603
[16] = tested on: Acinetobacter baumannii ATCC 19606
[17] = tested on: Candida albicans ATCC 90028
[18] = tested on: Klebsiella pneumoniae ATCC BAA-2146
[19] = tested on: Bacillus subtilis ATCC 6051
[20] = tested on: Pseudomonas aeruginosa ATCC 27853
[21] = tested on: Cryptococcus neoformans ATCC 208821
[22] = tested on: Escherichia coli ATCC 25922
[23] = tested on: Streptococcus gordonii ATCC 10558
[24] = tested on: Streptococcus mutans UA159
[25] = tested on: Streptococcus mutans GS-5
[26] = tested on: Streptococcus sanguinis ATCC 49295
Vibrio fluvialis = tested on: Vibrio fluvialis
Vibrio parahaemolyticus = tested on: Vibrio parahaemolyticus
Aeromonas hydrophila = tested on: Aeromonas hydrophila
Escherichia coli = tested on: Escherichia coli
Streptococcus pyogenes = tested on: Streptococcus pyogenes
Vibrio alginolyticus = tested on: Vibrio alginolyticus

MIC [2]: ≥ 85 µM
MIC [3]: ≥ 170 µM
MIC (Vibrio litoralis H1): 11 µM (≈ 32.5 µg/mL)
MIC [4]: 3 µM (≈ 8.88 µg/mL)
MIC [5]: 6 µM (≈ 17.8 µg/mL)
MIC (Vibrio scophthalmi ZS1): ≥ 340 µM
Structure (SMILES): CSCC[C@H](NC(=O)[C@H](CCCN=C(N)N)NC(=O)[C@H](Cc1cnc[nH]1)NC(=O)CNC(=O)[C@H](CCCCN)NC(=O)CNC(=O)[C@H](CCC(N)=O)NC(=O)[C@H](CCCN=C(N)N)NC(=O)[C@H](CCCCN)NC(=O)[C@H](Cc1ccc(O)cc1)NC(=O)[C@H](CCCCN)NC(=O)[C@H](CCCCN)NC(=O)CNC(=O)CNC(=O)[C@H](CCCCN)NC(=O)[C@@H](NC(=O)[C@@H](N)CS)C(C)C)C(=O)N[C@@H](CCCN=C(N)N)C(=O)N[C@@H](CCCN=C(N)N)C(=O)N[C@@H](Cc1ccc(O)cc1)C(=O)N[C@@H](CCCN=C(N)N)C(=O)N[C@@H](CC(N)=O)C(=O)N[C@@H](CC(N)=O)C(=O)N[C@@H](Cc1cnc[nH]1)C(=O)O [CVKGGKKYKRQGKGHRMRRYRNNH]

MIC [6]: 1.89 µM (≈ 4.68 µg/mL)
MIC (Candida tropicalis): 2.67 µM (≈ 6.62 µg/mL)
MIC (Candida albicans): 2.67 µM (≈ 6.62 µg/mL)
MIC (Acinetobacter baumannii): 7.27 µM (≈ 18 µg/mL)
MIC (Staphylococcus aureus): 1.89 µM (≈ 4.68 µg/mL)
MIC (Candida glabrata): ≥ 60.6 µM
MIC [7]: 15.1 µM (≈ 37.5 µg/mL)
Structure (SMILES): CC[C@H](C)[C@H](NC(=O)[C@H](C)NC(=O)[C@H](CCCCN)NC(=O)[C@H](C)NC(=O)CNC(=O)[C@H](CCCN=C(N)N)NC(=O)[C@H](CC(C)C)NC(=O)[C@H](CC(C)C)NC(=O)[C@H](CO)NC(=O)[C@H](CCCN=C(N)N)NC(=O)[C@H](CC(C)C)NC(=O)[C@@H](N)Cc1ccccc1)C(=O)N[C@@H](Cc1ccc(O)cc1)C(=O)N[C@@H](CCCN=C(N)N)C(=O)NCC(=O)N[C@@H](C)C(=O)N[C@@H](CCCN=C(N)N)C(=O)N[C@@H](C)C(=O)NCC(=O)N[C@@H](Cc1c[nH]c2ccccc12)C(=O)N[C@@H](CCCN=C(N)N)C(=O)NCC(N)=O [FLRSLLRGAKAIYRGARAGWRG]

MIC [8]: ≥ 100 µM
MIC [9]: ≥ 100 µM
MIC [10]: 100 µM (≈ 210 µg/mL)
MIC [11]: 25 µM (≈ 52.5 µg/mL)
MIC [12]: ≥ 100 µM
MIC [13]: 8.8 µM (≈ 18.5 µg/mL)
Structure (SMILES): CC(C)C[C@H](NC(=O)[C@H](CC(N)=O)NC(=O)[C@H](CCCN=C(N)N)NC(=O)[C@@H](CC(C)C)NC(=O)[C@H](Cc1ccccc1)NC(=O)[C@H](CC(=O)O)NC(=O)[C@H](CCCCN)NC(=O)[C@@H](CC(C)C)NC(=O)[C@H](CCCN=C(N)N)NC(=O)[C@H](CCC(N)=O)NC(=O)[C@@H](NC(=O)[C@@H](CC(C)C)NC(=O)[C@H](CCCN=C(N)N)NC(=O)[C@H](CCCCN)NC(=O)[C@H](Cc1ccccc1)NC(=O)CN)C(C)C)C(=O)N[C@H](C(N)=O)C(C)C [GFKRLVQRLKDFLRNLV]

MIC [23]: 16 µM (≈ 49.8 µg/mL)
MIC [24]: 3.42 µM (≈ 10.7 µg/mL)
MIC [25]: 4.27 µM (≈ 13.3 µg/mL)
MIC [26]: 31.9 µM (≈ 99.6 µg/mL)
Structure (SMILES): CC(C)C[C@H](NC(=O)[C@H](CCCN=C(N)N)NC(=O)[C@H](Cc1ccccc1)NC(=O)[C@H](Cc1ccccc1)NC(=O)[C@@H](NC(=O)[C@H](CO)NC(=O)[C@@H](N)CC(C)C)[C@@H](C)O)C(=O)N[C@@H](Cc1ccccc1)C(=O)N[C@@H](CC(N)=O)C(=O)N[C@@H](CCCN=C(N)N)C(=O)N[C@@H](CO)C(=O)N[C@@H](Cc1ccccc1)C(=O)N[C@H](C(=O)N[C@@H](CCC(N)=O)C(=O)NCC(=O)N[C@@H](CCCN=C(N)N)C(=O)N[C@@H](CCCN=C(N)N)C(=O)N[C@@H](CCCN=C(N)N)C(=O)N[C@@H](CCCN=C(N)N)C(=O)N[C@@H](CO)C(=O)N[C@H](C(=O)N[C@@H](CCC(N)=O)C(=O)N[C@@H](Cc1c[nH]c2ccccc12)C(=O)N[C@@H](CS)C(=O)N[C@@H](C)C(=O)O)C(C)C)[C@@H](C)O [LSTFFRLFNRSFTQGRRRRSVQWCA]

The next lines start with the molecule.

Structure (SMILES): CC(=O)N[C@@H](C)C(=O)N[C@@H](C)C(=O)N[C@@H](C)C(=O)N[C@@H](C)C(=O)N[C@@H](C)C(=O)N[C@@H](C)C(=O)N[C@@H](C)C(=O)N[C@@H](C)C(=O)N[C@@H](C)C(=O)N[C@@H](CCCCN)C(N)=O [AAAAAAAAAK]
MIC [1]: ≥ 100 µM

Structure (SMILES): CC[C@H](C)[C@@H]1NC(=O)CNC(=O)[C@H](CCCN=C(N)N)NC(=O)[C@H](Cc2ccc(O)cc2)NC(=O)[C@@H](NC(=O)[C@@H](NC(=O)[C@H](CCCN=C(N)N)NC(=O)[C@H](Cc2ccccc2)NC(=O)[C@H](CO)NC(=O)[C@H](Cc2c[nH]c3ccccc23)NC(=O)[C@@H](N)CCCCN)C(C)C)CSSC[C@@H](C(=O)N[C@@H](Cc2ccc(O)cc2)C(=O)N[C@@H](CCCN=C(N)N)C(=O)N[C@@H](CCCN=C(N)N)C(=O)N[C@@H](C)C(=O)N[C@@H](CCCN=C(N)N)C(=O)O)NC1=O [KWSFRVCYRGICYRRAR]
MIC (Pseudomonas aeruginosa): 1.8 µM (≈ 4 µg/mL)
MIC (Klebsiella pneumoniae): 7.21 µM (≈ 16 µg/mL)
MIC [9]: 0.45 µM (≈ 0.999 µg/mL)
MIC [14]: 1.8 µM (≈ 4 µg/mL)
MIC [15]: 0.901 µM (≈ 2 µg/mL)
MIC (Acinetobacter baumannii): 0.113 µM (≈ 0.25 µg/mL)
MIC [16]: 0.113 µM (≈ 0.25 µg/mL)
MIC [17]: 1.8 µM (≈ 4 µg/mL)
MIC [18]: 0.45 µM (≈ 0.999 µg/mL)
MIC [19]: 0.0563 µM (≈ 0.125 µg/mL)
MIC [20]: 0.45 µM (≈ 0.999 µg/mL)
MIC [21]: 0.113 µM (≈ 0.25 µg/mL)
MIC [22]: 0.113 µM (≈ 0.25 µg/mL)

Structure (SMILES): CC[C@H](C)[C@H](NC(=O)[C@H](CCCCN)NC(=O)[C@H](Cc1cnc[nH]1)NC(=O)[C@H](CC(C)C)NC(=O)[C@H](CC(C)C)NC(=O)[C@H](Cc1ccccc1)NC(=O)[C@H](CC(N)=O)NC(=O)[C@@H](N)C(C)C)C(=O)N[C@@H](Cc1ccc(O)cc1)C(=O)NCC(=O)N[C@@H](CC(N)=O)C(=O)N[C@H](C(=O)N[C@@H](CCCN=C(N)N)C(=O)N[C@@H](CC(=O)O)C(=O)N[C@@H](CO)C(=O)O)[C@@H](C)CC [VNFLLHKIYGNIRDS]
MIC (Vibrio fluvialis): ≥ 34.9 µM
MIC (Vibrio parahaemolyticus): 18 µM (≈ 32.2 µg/mL)
MIC (Aeromonas hydrophila): 2.18 µM (≈ 3.9 µg/mL)
MIC (Escherichia coli): 2.18 µM (≈ 3.9 µg/mL)
MIC (Streptococcus pyogenes): ≥ 34.9 µM
MIC (Staphylococcus aureus): 34.9 µM (≈ 62.5 µg/mL)
MIC (Vibrio alginolyticus): 2.18 µM (≈ 3.9 µg/mL)
